The record followed here is patent publication US6984510B2, “Vitamin B6-phosphate phosphatase” (DSM IP Assets B.V., priority 2001, dated 2006).

For test [1], the target named is T1, VB6PP (Sinorhizobium meliloti, UniProt A7BK78). The experiment in a line: substrate specificity of the enzyme (phosphate release, malachite green method). Type of test: biochemical. As to conditions: for Relative activity (%): substrate 160 μM final concentration, PNP = 100. On the procedure:
After incubation for 30 minutes, the reaction mixture was cooled down into an ice bath. Activity was determined in the following two ways. […] One unit of the enzyme activity was defined as-the amount of enzyme synthesizing 1 μmole of vitamin B6 for 30 minutes in the assay system described above.

Test [2] deals with T1, VB6PP. The experiment in a line: co-factor requirement of the enzyme to convert VB6P to vitamin B6 (standard enzyme assay). Type of test: biochemical. Set-up: Relative activity (%): concentration or dose not given beside the values.
Where [3] appears, read: metal salt as co-factor, MnCl2 = 100.

The structures appear in SMILES notation. Read-outs that look alike come from different tables or passages of the source.

T1 sequence (A7BK78 entry or part of it): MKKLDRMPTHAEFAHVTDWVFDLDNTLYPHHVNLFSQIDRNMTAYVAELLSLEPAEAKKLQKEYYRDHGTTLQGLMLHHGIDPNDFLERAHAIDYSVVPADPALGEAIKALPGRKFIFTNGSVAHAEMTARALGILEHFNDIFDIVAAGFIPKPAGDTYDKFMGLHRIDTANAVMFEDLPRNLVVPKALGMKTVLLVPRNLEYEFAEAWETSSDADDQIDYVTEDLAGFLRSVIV

With `O=P(O)(O)Oc1cccc2ccccc12` [1-naphthyl phosphate], the “Relative activity (%)” value at VB6PP [1] is on record as 9%.
Same read-out and setting: in the case of `O=C(O)COP(=O)(O)O` [2-phosphoglycolic acid] it was 0%.
`[Cl-].[Cl-].[Co+2]` [CoCl2]: on VB6PP [2], the “Relative activity (%)” value was 65% and the “co-factor for conversion of VB6P to vitamin B6” value (from here on “co-factor for conversion of VB6P”) is recorded as “could serve as a co-factor”.
On to `O=C(O)C(O)COP(=O)(O)O` (stereo not drawn) [D(−)3-phosphoglyceric acid], for which the “Relative activity (%)” value on VB6PP [1] is 0%.
Turning to `O=C[C@H](O)[C@@H](O)[C@H](O)[C@H](O)COP(=O)(O)O` [D-glucose 6-phosphate], the “Relative activity (%)” value on VB6PP [1] was 0%.
Take `[Cl-].[Cl-].[Mg+2]` [MgCl2]: the “co-factor for conversion of VB6P” value on VB6PP [2] (divalent metal ion) is on record as “could serve as a co-factor”. Also, the “Relative activity (%)” value at VB6PP [2] (setting [3]) is given as 88%.
In the same order, the values of `[Cl][Mn][Cl]` [MnCl2] are “could serve as a co-factor” and 100%.
In the same order, the values of `[Cl][Ni][Cl]` [NiCl2] are “could serve as a co-factor” and 7%.
As for `N[C@@H](COP(=O)(O)O)C(=O)O` [O-phospho-L-serine], the “Relative activity (%)” value at VB6PP [1] is 0%.
For the compound `Cc1ncc(COP(=O)(O)O)c(C=O)c1O` [PLP, pyridoxal 5′-phosphate], at VB6PP [1], the Substrate specificity result is recorded as “active” and the “Relative activity (%)” value is listed as 40%.
In the same order, the values of `Cc1ncc(COP(=O)(O)O)c(CN)c1O` [PMP, pyridoxamine 5′-phosphate] are “active” and 0.1%.
As to `[Cl][Sn][Cl]` [SnCl2], at VB6PP [2] (divalent metal ion), the “co-factor for conversion of VB6P” value is reported as “could serve as a co-factor”. For the same compound, at VB6PP [2] (setting [3]), the “Relative activity (%)” value came to 11%.
Regarding `Nc1ncnc2c1ncn2[C@@H]1O[C@H](COP(=O)(O)OP(=O)(O)O)[C@@H](O)[C@H]1O` [adenosine diphosphate], on VB6PP [1], the “Relative activity (%)” value amounted to 0%.
Regarding `Nc1ncnc2c1ncn2[C@@H]1O[C@H](COP(=O)(O)O)[C@@H](O)[C@H]1O` [adenosine monophosphate], the “Relative activity (%)” value on VB6PP [1] worked out at 6%.
Still for that read-out and setting: in the case of `Nc1ncnc2c1ncn2[C@@H]1O[C@H](COP(=O)(O)OP(=O)(O)OP(=O)(O)O)[C@@H](O)[C@H]1O` [adenosine triphosphate] it was 0%; in that of `O=[N+]([O-])c1ccc(OP(=O)(O)O)cc1` [p-nitrophenyl phosphate], 29%.
